Experimental data reported in ChEMBL document CHEMBL1201862, “PubChem BioAssay data set” (2004).
Active and inactive are the calls of the source.

Assays:
[1] = target: T1, Carboxy-terminal domain RNA polymerase II polypeptide A small phosphatase 1 (Homo sapiens, UniProt Q9GZU7); assay: CTDSP1 inhibitors, concentration-response, biochemical, absorbance readout, ultra-high-throughput screen actives (AID 540297); format: functional
T1 sequence (Q9GZU7 whole entry): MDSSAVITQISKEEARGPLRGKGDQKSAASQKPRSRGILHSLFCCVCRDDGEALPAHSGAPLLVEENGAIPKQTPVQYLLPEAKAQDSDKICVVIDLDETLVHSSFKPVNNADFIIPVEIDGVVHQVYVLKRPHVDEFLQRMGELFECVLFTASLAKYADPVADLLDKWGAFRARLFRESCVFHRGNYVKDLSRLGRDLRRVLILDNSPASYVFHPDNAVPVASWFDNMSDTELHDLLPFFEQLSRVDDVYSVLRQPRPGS

[2] = target: T2, Low molecular weight phosphotyrosine protein phosphatase (Homo sapiens, UniProt P24666); format: functional; conditions: read-out: IC50_Mean;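 further: Dose-response confirmation assay measuring inhibition of LMPTP enzyme activity by fluorescence intensity read-out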
T2 sequence (P24666 whole entry): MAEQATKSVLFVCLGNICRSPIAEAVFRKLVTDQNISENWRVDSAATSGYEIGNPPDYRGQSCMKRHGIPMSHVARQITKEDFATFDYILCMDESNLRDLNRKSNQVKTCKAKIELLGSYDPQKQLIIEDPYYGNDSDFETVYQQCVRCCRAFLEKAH

[3] = target: Voltage-gated inwardly rectifying potassium channel KCNH2 (Homo sapiens, UniProt Q12809); assay: concentration-dependent hERG rescue from blockers – cell-based, thallium flux, dose response (AID 2121); format: ADME
[4] = target: Prothrombin (Homo sapiens, UniProt P00734); assay: Thrombin 1536 HTS Dose Response Confirmation. [Related pubchem assays: 1046 (Thrombin 1536 HTS; hits were confirmed in this assay)]; format: functional
[5] = target: Protein Wnt-3a (Mus musculus, UniProt P27467); assay: antagonism of Wnt3a pathway luciferase reporter – Wnt-LIGHT cells, luminescence, selectivity assay for Gli-SUFU antagonist project, dose response (AID 651570); format: functional; conditions: read-out: IC50_Mean;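 further: Wnt-LIGHT reporter cells stimulated with conditioned medium from Wnt3a-producing cells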
[6] = target: T3, Corticotropin-releasing factor receptor 2/Corticotropin-releasing factor-binding protein (Homo sapiens, UniProt P24387+Q13324); assay: Dose Response confirmation of uHTS hits for small molecule antagonists of the CRF-binding protein and CRF-R2 receptor complex.; format: functional; conditions: read-out: IC50_Mean
T3 sequence (Q13324 whole entry): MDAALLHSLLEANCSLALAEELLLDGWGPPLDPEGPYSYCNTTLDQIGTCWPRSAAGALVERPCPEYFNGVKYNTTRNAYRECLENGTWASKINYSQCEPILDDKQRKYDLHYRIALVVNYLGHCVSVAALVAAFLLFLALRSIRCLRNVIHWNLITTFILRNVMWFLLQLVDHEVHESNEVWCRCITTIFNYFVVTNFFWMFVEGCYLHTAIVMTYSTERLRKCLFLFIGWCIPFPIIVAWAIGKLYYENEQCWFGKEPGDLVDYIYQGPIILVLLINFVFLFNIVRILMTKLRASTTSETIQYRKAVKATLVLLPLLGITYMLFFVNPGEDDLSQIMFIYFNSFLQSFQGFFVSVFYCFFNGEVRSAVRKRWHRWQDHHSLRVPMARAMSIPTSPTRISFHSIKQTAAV
T3 sequence (P24387 whole entry): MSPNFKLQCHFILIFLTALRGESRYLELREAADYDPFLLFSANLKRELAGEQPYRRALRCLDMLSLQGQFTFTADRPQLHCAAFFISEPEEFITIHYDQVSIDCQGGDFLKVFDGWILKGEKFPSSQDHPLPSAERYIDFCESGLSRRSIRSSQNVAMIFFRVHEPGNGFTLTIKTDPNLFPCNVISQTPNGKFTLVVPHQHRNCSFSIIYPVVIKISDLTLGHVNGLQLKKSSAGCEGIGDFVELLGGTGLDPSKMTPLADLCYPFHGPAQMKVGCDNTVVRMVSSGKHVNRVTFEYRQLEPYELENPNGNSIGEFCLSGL

[7] = target: T3, Corticotropin-releasing factor receptor 2/Corticotropin-releasing factor-binding protein; assay: activators of CRF receptor 2 with binding protein – uHTS hits, confirmation (AID 602473); format: functional; conditions: read-out: EC50_Mean
[8] = blockers of CRF-binding protein–CRF-R2 complex – cell-based, uHTS hits, 384-well, dose response (AID 651639); format: functional, Homo sapiens; conditions: read-out: IC50_Mean
[9] = HEK-293T viability loss after treatment – luminescence, T-cell screen hits, cytotoxicity control for TCR NF-kB inhibitor project, dose response (AID 489026); format: functional, cell-based;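 further: cells exposed to compound about 14 hours before the viability readout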
[10] = target: Major prion protein (Homo sapiens, UniProt P04156); format: functional, cell-based
[11] = cells
[12] = CCR5-tropic HIV-1 fusion blockers – cell-based, CCR5-tropic Env, dose response (AID 2279); format: functional
[13] = target: Genome polyprotein (dengue virus type 2, UniProt P29990); assay: flavivirus cap methylation enzyme inhibition – biochemical, confirmation dose response, primary screen (AID 588689); format: functional
[14] = target: NAD-dependent protein deacylase sirtuin-5, mitochondrial (Homo sapiens, UniProt Q9NXA8); assay: sirtuin-5 deacylation blockers, concentration series – biochemical, fluorescence imaging, cherry-pick, set 5, dose response (AID 720591);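 further: desuccinylation of succinyl peptide AMC substrate read as fluorescence after trypsin release; potency of inhibitors that lower fluorescence and may act on trypsin instead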
[15] = target: T4, Estrogen receptor (Homo sapiens, UniProt P03372);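 further: potency for inhibiting coactivator peptide recruitment to the receptor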
T4 sequence (P03372 whole entry): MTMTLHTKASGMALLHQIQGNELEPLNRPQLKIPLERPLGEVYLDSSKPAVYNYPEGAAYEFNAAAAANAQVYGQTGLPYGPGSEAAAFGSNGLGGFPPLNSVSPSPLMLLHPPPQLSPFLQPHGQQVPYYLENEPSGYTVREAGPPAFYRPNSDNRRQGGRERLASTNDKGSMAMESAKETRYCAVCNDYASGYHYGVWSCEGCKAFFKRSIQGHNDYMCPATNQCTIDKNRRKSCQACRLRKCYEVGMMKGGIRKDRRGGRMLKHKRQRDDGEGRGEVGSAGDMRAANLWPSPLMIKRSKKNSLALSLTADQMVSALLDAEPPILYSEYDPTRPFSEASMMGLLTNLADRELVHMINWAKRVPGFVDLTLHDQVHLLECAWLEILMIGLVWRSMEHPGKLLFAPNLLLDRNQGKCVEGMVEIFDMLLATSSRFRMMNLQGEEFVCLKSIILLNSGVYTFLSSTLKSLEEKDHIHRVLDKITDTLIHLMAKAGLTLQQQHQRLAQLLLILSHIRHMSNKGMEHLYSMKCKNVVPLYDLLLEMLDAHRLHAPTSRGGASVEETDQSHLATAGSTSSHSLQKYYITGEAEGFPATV

[16] = Luminescence-based cell-based high throughput dose response assay to identify activators of the DAF-12 from the parasite S. stercoralis (ssDAF-12).; format: functional
[17] = target: Paired box protein Pax-8 (Homo sapiens, UniProt Q06710); assay: PAX8 transcriptional activity inhibition in RMG-I – RMG-I cells, luciferase, cherry-pick, dose response (AID 687027); format: functional, cell-based;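 further: luciferase reporter driven by Pax8 target thyroperoxidase promoter measured by SteadyGlo luminescence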
[18] = A2780 cell killing – plate reader, dry powder samples, cytotoxicity control, dose response (AID 743046); format: functional, cell-based
[19] = OVCAR-3 cell viability loss – plate reader, dry powder samples, PAX8 inhibitor project, dose response (AID 743044); format: functional, cell-based
[20] = OVCAR8 cell viability loss – plate reader, dry powder samples, PAX8 project, dose response (AID 743197); format: functional, cell-based; conditions: OVCAR-8
[21] = growth inhibition of yeast DHODH-expressing 3D7 parasites – SYBR Green, dry powder samples, dose response (AID 1159570); format: functional, cell-based;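 further: parasite growth measured after 72 hours of compound exposure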
[22] = toxicity to human HepG2 hepatoma cells – cell-based, plate reader, dry powder samples, cytotoxicity control, dose response (AID 1159569); format: functional;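 further: inhibitor potency with signal falling toward the positive control level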
[23] = P. falciparum Dd2 growth inhibitors, dose response, SYBR Green, cherry-picked samples (AID 1159567); format: functional, cell-based
[24] = Dd2 malaria parasite growth inhibition potency – SYBR Green, dry powder samples, dose response (AID 1159566); format: functional, cell-based;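 further: potency for growth inhibition with lower SYBR green DNA signal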
[25] = growth inhibition of PfATP4-mutant resistant parasites – NITD609-resistant line, SYBR Green, dry powder, dose response (AID 1159571); format: functional, cell-based;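 further: parasites synchronized at ring stage by sorbitol before testing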

O=C(/C=C/c1cccc([N+](=O)[O-])c1)Nc1ccc(NC(=O)c2cccs2)cc1
IC50 [1]: 4.11 µM (active) | IC50 [2]: 27.3 µM (inactive)

Cc1cccc(NC(=S)NC(=O)c2cc(-c3ccccc3)nc3ccccc23)c1
EC50 [3]: 0.53 µM (active)

O=C(NCc1ccccc1)C1=C[C@@H](c2coc3ccccc3c2=O)C[C@@H](OCCCCO)O1
IC50 [4]: > 50 µM (not active)

CCCCOc1ccc(N2C(N)=NC(N)=NC23CCCCC3)cc1
IC50 [5]: 18.3 µM (active)

CC(C)c1cc(C(F)(F)F)nc(NNc2nc(C(C)C)cc(C(F)(F)F)n2)n1
IC50 [6]: 988 nM (active) | EC50 [7]: > 53 µM (inactive) | IC50 [8]: > 20 µM (inactive)

NNC(=O)CN1C(=O)Nc2ccc(Br)cc2C1c1ccccc1 (stereo not given)
IC50 [4]: > 50 µM (not active)

COc1cc(C(=O)Nc2ccc3c(c2)ncn3C)cc(OC)c1OC
IC50 [9]: > 80 µM (inactive) | IC50 [10]: 6.23 µM (active) | IC50 [11]: > 138 µM (inactive)

O=C(CCN1C(=O)/C(=C\C=C\c2ccccc2)SC1=S)Nc1ccccc1C(=O)O
IC50 [12]: > 50 µM (active) | IC50 [13]: 64.3 µM (active)

O=C1N2CCSC2=NC1(NS(=O)(=O)c1ccccc1)C(F)(F)F (stereo not given)
EC50 [3]: 2.27 µM (active)

CCOC(=O)N1CCN(C(=O)C2CCCN(S(=O)(=O)c3cc(C)ccc3OC)C2)CC1 (stereo not given)
IC50 [4]: > 50 µM (not active)

Cc1cc(C2C(=O)c3ccccc3C2=O)c(C)c(C)c1C
AC50 [14]: > 30 µM (inactive)

CCN1C(=O)C2(C(C(=O)c3cc4ccccc4o3)=C(O)C(=O)N2CCCN2CCOCC2)c2ccccc21 (stereo not given)
IC50 [10]: 2.08 µM (active) | IC50 [11]: > 138 µM (inactive)

CCc1c(C)nc2c(Br)cccc2c1SCCC#N
AC50 [14]: > 30 µM (inactive) | IC50 [10]: 2.52 µM (active) | IC50 [11]: > 138 µM (inactive)

CCC(C)n1nc(O)cc1N (stereo not given)
IC50 [15]: > 50 µM (not active)

NC(=O)c1cccnc1Nc1cccc([N+](=O)[O-])c1
EC50 [3]: 2.98 µM (active)

CC(C)Sc1snnc1-c1ccccc1
IC50 [6]: < 368 nM (active) | EC50 [7]: > 53 µM (inactive) | IC50 [8]: > 20 µM (inactive)

COc1ccc(C(=O)C2CCCN(Cc3c[nH]nc3-c3ccccc3)C2)cc1OC (stereo not given)
AC50 [14]: > 30 µM (inactive)

CN(C(=S)NC(=O)c1ccc(F)cc1)C1CCCCC1
EC50 [3]: 8.79 µM (active)

Cc1cc(NC(=O)CSc2nc(O)c(C#N)c(-c3ccccc3)n2)no1
IC50 [10]: 7.14 µM (active) | IC50 [11]: > 138 µM (inactive)

COc1ccc(NC(=O)c2c(F)cccc2F)cc1S(=O)(=O)Nc1ccc(Br)cc1
IC50 [6]: 20000 nM (active) | EC50 [7]: > 53 µM (inactive) | IC50 [8]: 18.9 µM (active)

CCc1nnc(NC(=O)CCC(=O)N2CCCC2)s1
IC50 [4]: > 50 µM (not active)

COC(=O)C1=C(c2cc3ccccc3o2)C[C@@H]2CC[C@H]1N2C(=O)N1CCC(C)CC1
IC50 [5]: 24.4 µM (inactive)

CCOC(=O)c1c(C)[nH]c(C)c1C(=O)COC(=O)c1ccccc1O
AC50 [14]: 20 µM (active)

Cc1cc2oc(C(=O)NCC(c3ccco3)N3CCCC3)c(C)c2cc1C (stereo not given)
IC50 [16]: > 67.6 µM (inactive)

C[C@@H]1CN([C@@H](C)CO)C(=O)Cc2cc(NC(=O)NC3CCCCC3)ccc2O[C@H]1CN(C)Cc1ccc(-c2ccccc2)cc1
AC50 [17]: 8.66 µM (active) | AC50 [18]: 31.8 µM (active) | AC50 [19]: 49.5 µM (active) | AC50 [20]: 34 µM (active)

COc1ccc(NC(=O)Nc2ccc3c(c2)C(=O)N([C@H](C)CO)C[C@@H](C)[C@@H](CN(C)C(=O)Cc2ccccc2)OCCCC[C@H](C)O3)cc1
AC50 [17]: 30.9 µM (active) | AC50 [18]: 16.6 µM (active) | AC50 [20]: > 70 µM (inactive)

COc1ccc(NC(=O)N2CCCCN3[C@H](CO)[C@H](c4ccc(C#CCC(C)C)cc4)[C@@H]3C2)cc1
AC50 [21]: 209 nM (active) | AC50 [22]: > 100 µM (inactive) | AC50 [23]: 636 nM (active) | AC50 [24]: 418 nM (active) | AC50 [25]: 264 nM (active)

C[C@@H]1CN([C@H](C)CO)C(=O)c2ccccc2-c2ccccc2CO[C@H]1CN(C)C(=O)Nc1cccc(Cl)c1Cl
AC50 [21]: 466 nM (active) | AC50 [22]: > 100 µM (inactive) | AC50 [23]: 1010 nM (active) | AC50 [24]: 560 nM (active) | AC50 [25]: 1650 nM (active)
